Reference: article PMC8531552, “Full-Length Galectin-3 Is Required for High Affinity Microbial Interactions and Antimicrobial Activity” (Frontiers in Microbiology, 2021)

Experiments:
[1] = tested on: P. alcalifaciens O5; assay: Flow cytometry analysis of galectin binding to intact bacteria; parameters: species or system Providentia alcalifaciens O5
Protocol: (§1) To examine potential binding by each galectin, bacteria were resuspended and washed twice in PBS at 4°C and then incubated with 0.1μM Alexa Fluor™ 488 labeled Gal-3 or Gal-3C at 4°C for 20min. In some experiments, Gal-3 or Gal-3C were co-incubated with 20mM thiodigalactoside (TDG) for 10min before incubation with the bacteria as a control. After incubation, cells were washed twice and resuspended them in 400μl PBS for flow cytometry analysis using FACSCanto II flow cytometer (BD Biosciences). The data were processed with FlowJo version 10.

[2] = tested on: P. alcalifaciens O5; assay: Bacteria viability by CFU enumeration; assay type: cell-based, Providentia alcalifaciens O5; settings: 37°C, 2h
Protocol: (§2) When assaying potential antimicrobial effects of Gal-3 and Gal-3C, each strain was assessed in the mid-logarithmic growth phase (OD600 of ~0.1) and grown in LB media as outlined previously ([Arthur et al., 2015b]). Bacterial cells were incubated with the concentrations of each galectin indicated in the figure legends (0.04–10μM) at 37°C for 2h with shaking at 250rpm. Bacteria were then pipetted and plated on LB agar plate to determine the number of viable bacteria by CFU enumeration.

[3] = tested on: K. pneumoniae O1; assay: Bacteria viability by CFU enumeration; assay type: cell-based, Klebsiella pneumoniae O1; settings: 37°C, 2h
Protocol: as §2

[4] = tested on: K. pneumoniae O1; assay: Flow cytometry analysis of galectin binding to intact bacteria; parameters: species or system Klebsiella pneumoniae O1
Protocol: as §1

[5] = tested on: P. alcalifaciens O21; assay: Bacteria viability by CFU enumeration; assay type: cell-based, Providentia alcalifaciens O21; settings: 0.04–10μM, 37°C, 2h
Protocol: as §2

[6] = tested on: P. alcalifaciens O21; assay: Flow cytometry analysis of galectin binding to intact bacteria; parameters: species or system Providentia alcalifaciens O21; settings: 0.1μM Alexa Fluor 488 labeled galectin, 4°C, 20min
Protocol: as §1

[7] = tested on: K. pneumoniae O4; assay: Bacteria viability by CFU enumeration; assay type: cell-based, Klebsiella pneumoniae O4; settings: 0.04–10μM, 37°C, 2h
Protocol: as §2

[8] = molecular target: T1, human Gal-3C (C-terminal domain of Gal-3) (Homo sapiens, UniProt P17931); assay: CFG glycan microarray binding of Alexa Fluor 488 labeled Gal-3C
T1 construct: made in house; host or cells: E. coli BL21 (DE3)
T1 sequence (P17931 118-248 limits assumed): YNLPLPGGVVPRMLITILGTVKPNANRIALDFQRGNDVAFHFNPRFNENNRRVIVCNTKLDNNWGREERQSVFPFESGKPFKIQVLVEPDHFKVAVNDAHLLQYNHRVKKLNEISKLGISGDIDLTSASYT
Protocol: (§3) Galectins were labeled with Alexa Fluor™ 488 NHS Ester (succinimidyl ester) by incubating 2mg/ml galectin with 1mg Alexa Fluor™ 488 for 1h at room temperature and avoid from light as outlined previously ([Stowell et al., 2004]). […] While 2-ME is not required for Gal-3 activity, this approach was used to provide a consistent protocol for all galectin purification. […] Finally, labeled galectin was applied to CFG glycan microarray (CFG) and MGM prepared as described previously ([Blixt et al., 2004]; [Stowell et al., 2008a], [2014]; [Song et al., 2009]; [Wu et al., 2021a]). […] The slide was dried by microcentrifugation, and an image of bound fluorescence was obtained using a microarray scanner (GenePix 4000 B, Molecular devices). […] For non-saturated positive glycan interactions, the relative fluorescence units were plotted as a percent of the maximal binding at the highest concentration examined.
(§4) In order to compare the relative binding affinities of Gal-3 and Gal-3C toward blood group antigens and other glycan structures present on the array, we calculated the relative KD generated from binding isotherm data for each galectin toward various blood group antigens, polylactosamine (polyLacNAc), and other common structural modifications previously shown to influence galectin recognition (e.g., α2-6 sialylation).

[9] = molecular target: T2, human Gal-3 (Homo sapiens, UniProt P17931); assay: CFG glycan microarray binding of Alexa Fluor 488 labeled Gal-3
T2 construct: made in house; host or cells: E. coli BL21 (DE3)
T2 sequence (P17931 whole entry): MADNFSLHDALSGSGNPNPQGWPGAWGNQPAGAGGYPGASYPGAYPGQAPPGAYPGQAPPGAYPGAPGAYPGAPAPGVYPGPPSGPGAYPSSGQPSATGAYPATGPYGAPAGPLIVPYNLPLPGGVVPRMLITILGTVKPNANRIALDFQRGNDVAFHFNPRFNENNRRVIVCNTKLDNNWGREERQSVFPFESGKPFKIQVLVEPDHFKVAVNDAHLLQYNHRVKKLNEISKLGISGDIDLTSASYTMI
Protocol: as §3, §4

[10] = 0.1μM Alexa Fluor 488 labeled galectin, 4°C, 20min
[11] = 20mM TDG co-incubated with galectin

Molecule: Gal-3: recombinant human galectin-3, full-length chimeric galectin expressed in E. coli
- binding to P. alcalifaciens O5 [1, 10]: Clear interactions
- impact on viability of P. alcalifaciens O5 ([2]; 0.04–10μM): reduced viability
- EC50 ([2]; CFU enumeration, read-out: effective concentration 50 (EC50), viability of P. alcalifaciens O5): ~170 nM
- impact on viability of K. pneumoniae O1 ([3]; 0.04–10μM): loss of microbial viability was noted at higher concentrations
- EC50 ([3]; CFU enumeration, read-out: EC50 toward K. pneumoniae O1 viability): 750 nM
- binding to K. pneumoniae O1 [4, 10]: bound K. pneumoniae O1
- impact on viability of P. alcalifaciens O21 [5]: failed to result in any detectable impact on microbial viability
- binding to P. alcalifaciens O21 [6]: failed to result in any detectable binding
- impact on viability of K. pneumoniae O4 [7]: failed to impact the viability

Molecule: blood group B
- Gal-3C concentration required for similar absolute binding as Gal-3 at […] ([8]; CFG array): 3.3 µM
- Gal-3C binding on CFG array ([8]; binding isotherms, Fig 2): high affinity interactions
- Gal-3 concentration at which recognition was observed ([9]; CFG array, virtually no binding at or below 0.12μM): 0.36 µM
- Gal-3 binding on CFG array ([9]; binding isotherms, Fig 2 and 3): high affinity interactions

Molecule: OC[C@H]1O[C@@H](S[C@@H]2O[C@H](CO)[C@H](O)[C@H](O)[C@H]2O)[C@H](O)[C@@H](O)[C@H]1O [TDG, thiodigalactoside, reference compound]
- effect on Gal-3 and Gal-3C engagement of P. alcalifaciens O5 [1, 11]: inhibited recognition
- effect on Gal-3 and Gal-3C binding to K. pneumoniae O1 [4, 11]: prevented binding
